Test results from patent US20240059698A1 (Accutar Biotechnology Inc., priority 2022, published 2024).

Assays:
Assay type in all cases: cell-based
[1] = test system: HCC827 cells; test: Cell growth inhibition (CellTiter-Glo), HCC827; conditions: Homo sapiens, 72 h, 3 days
Procedure, shortened: (§1)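 HCC827 cells in RPMI and A431 cells in DMEM (both 10% FBS) were seeded at 5000 cells/well and left overnight. They were then exposed to compound dilutions for 3 days at 37° C. Viability was read by CellTiter-Glo luminescence.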

[2] = test system: HCC827-SVD cells (human EGFR exon 20 insertion mutant D770_N771insSVD); test: Cell growth inhibition (CellTiter-Glo), HCC827-SVD; conditions: 72 h, 3 days
Procedure, shortened: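 HCC827 cells with endogenous EGFR knocked out and lentivirally expressing the insertion mutant (single clone) were seeded at 5000 cells/well in RPMI with 10% FBS. After overnight, compounds added; 3 days at 37 °C, then CellTiter-Glo luminescence.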

[3] = test system: HCC827-ASV cells (human EGFR exon 20 insertion mutant V769_D770insASV); test: Cell growth inhibition (CellTiter-Glo), HCC827-ASV; conditions: 72 h, HCC827-ASV cells, 3 days, CellTiter-Glo, read-out: Cell growth inhibition, GI50 (nM) HCC827-ASV
Procedure: Generation of HCC827-SVD, HCC827-ASV, and HCC827-YVMA cell lines. The HCC827-SVD cell line was generated by first transducing HCC827 cells (ATCC) with lentiviral particles expressing codon-optimized human EGFR exon 20 insertion mutant D770_N771insSVD, and then selecting under 5 µg/mL puromycin treatment for a week. The resulting cells were further transduced with lentiviral particles carrying EGFR sgRNA and CAS9 to knockout the endogenous alleles of EGER and then selected under 500 µg/mL hygromycin B treatment for two weeks. The limiting dilution approach was used to subsequently generate the single clone of the HCC827-SVD stable cell line. Endogenous EGFR knockout was confirmed by Sanger sequencing of cell genomic DNA, and expression of exogenous mutant EGFR was verified by Western blot analysis.
HCC827-ASV and HCC827-YVMA cell lines were generated in a similar approach as HCC827-SVD, except that HCC827 cells (ATCC) were first transduced with lentiviral particles expressing codon-optimized human EGFR exon 20 insertion mutant V769_D770insASV and human ERBB2 exon20 insertion mutant A775_G776ins YVMA, respectively.
2. Cell Growth Inhibition for HCC827, HCC827-SVD, HCC827-ASV, HCC827-YVMA, and A431.
HCC827(ATCC), HCC827-SVD, HCC827-ASV, and HCC827-YVMA cells were seeded in 96-well plates at 5000 cells/well in 90 μL of RPMI growth medium containing 10% FBS and 1% Penicillin Streptomycin. A431 (ATCC) cells were seeded in 96-well plates at 5000 cells/well in 90 μL of DMEM growth medium containing 10% FBS and 1% Penicillin Streptomycin. Cells were incubated at 37° C. overnight and then administered with 10 μL 10× test compounds prepared in the growth medium at various concentrations. After administration of the compounds, cells were incubated at 37° C. for 3 days. Before the CellTiter-Glo assay, the plates were equilibrated at room temperature for approximately 30 minutes. 100 ul of CellTiter-Glo reagent (Promega) was added to each well. The plates were then incubated at room temperature for 10 minutes and luminescence was recorded by the EnSight® multimode plate reader (PerkinElmer). Table 7 listed selected compounds in cellular growth assay.

[4] = test system: HCC827-YVMA cells (human ERBB2 exon20 insertion mutant A775_G776ins YVMA); test: Cell growth inhibition (CellTiter-Glo), HCC827-YVMA; conditions: 72 h, HCC827-YVMA cells, 3 days, CellTiter-Glo, read-out: Cell growth inhibition, GI50 (nM) HCC827-YVMA
Procedure, shortened: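 HCC827 cells transduced with lentiviral codon-optimized mutant (ERBB2 A775_G776insYVMA or EGFR V769_D770insASV), endogenous EGFR knocked out by CRISPR, single clone selected. Cells seeded overnight in RPMI/10% FBS, then exposed to serially diluted compounds at 37 °C for 3 days; viability read by CellTiter-Glo luminescence.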

[5] = test system: A431 cells; test: Cell growth inhibition (CellTiter-Glo), A431; conditions: Homo sapiens, A-431, 72 h, 3 days
Procedure, shortened: as §1

C=CC(=O)N1CCC(c2csc3ncnc(Nc4ccc(Oc5ccn(Cc6cc(C)ccn6)n5)cc4F)c23)CC1 [Compound 158, 1-(4-(4-((2-fluoro-4-((1-((4-methylpyridin-2-yl)methyl)-1H-pyrazol-3-yl)oxy)phenyl)amino)thieno[2,3-d]pyrimidin-5-yl)piperidin-1-yl)prop-2-en-1-one]
GI50 [1]: > 1000 nM
GI50 [2]: > 1000 nM
GI50 [3]: 200 to 1000 nM
GI50 [4]: 50 to 200 nM
GI50 [5]: > 1000 nM

C=CC(=O)N1CCC(c2csc3ncnc(Nc4ccc(Oc5ccnc(N6C[C@@H](C)O[C@@H](C)C6)c5)cc4F)c23)CC1 [Compound 159, 1-(4-(4-((4-((2-((2R,6S)-2,6-dimethylmorpholino)pyridin-4-yl)oxy)-2-fluorophenyl)amino)thieno[2,3-d]pyrimidin-5-yl)piperidin-1-yl)prop-2-en-1-one]
GI50 [1]: > 1000 nM
GI50 [2]: 200 to 1000 nM
GI50 [3]: 200 to 1000 nM
GI50 [4]: 200 to 1000 nM
GI50 [5]: > 1000 nM

C=CC(=O)N1CCC(c2csc3ncnc(Nc4ccc(OCc5ccccn5)c(Cl)c4)c23)CC1 [Compound 160, 1-[4-[4-[3-chloro-4-(2-pyridylmethoxy)anilino]thieno[2,3-d]pyrimidin-5-yl]-1-piperidyl]prop-2-en-1-one]
GI50 [1]: < 50 nM
GI50 [2]: < 50 nM
GI50 [3]: < 50 nM
GI50 [4]: < 50 nM
GI50 [5]: < 50 nM

C=CC(=O)N1CCC(c2n[nH]c3ncnc(Nc4ccc(Oc5ccn(Cc6cc(C)ccn6)n5)cc4F)c23)CC1 [Compound 164, 1-(4-(4-((2-fluoro-4-((1-((4-methylpyridin-2-yl)methyl)-1H-pyrazol-3-yl)oxy)phenyl)amino)-1H-pyrazolo[3,4-d]pyrimidin-3-yl)piperidin-1-yl)prop-2-en-1-one]
GI50 [1]: 200 to 1000 nM
GI50 [2]: 200 to 1000 nM
GI50 [3]: 200 to 1000 nM
GI50 [4]: 50 to 200 nM
GI50 [5]: 200 to 1000 nM

C=CC(=O)N1CCC(c2n[nH]c3ncnc(Nc4ccc(OCc5ccccn5)c(Cl)c4)c23)CC1 [Compound 166, 1-(4-(4-((3-chloro-4-(pyridin-2-ylmethoxy)phenyl)amino)-1H-pyrazolo[3,4-d]pyrimidin-3-yl)piperidin-1-yl)prop-2-en-1-one]
GI50 [1]: < 50 nM
GI50 [2]: < 50 nM
GI50 [3]: < 50 nM
GI50 [4]: < 50 nM
GI50 [5]: < 50 nM

C=CC(=O)N1CCC(c2n[nH]c3ncnc(Nc4ccc(Oc5ccnc(N6C[C@@H](C)O[C@@H](C)C6)c5)cc4F)c23)CC1 [Compound 167, 1-(4-(4-((4-((2-((2R,6S)-2,6-dimethylmorpholino)pyridin-4-yl)oxy)-2-fluorophenyl)amino)-1H-pyrazolo[3,4-d]pyrimidin-3-yl)piperidin-1-yl)prop-2-en-1-one]
GI50 [1]: > 1000 nM
GI50 [2]: 50 to 200 nM
GI50 [3]: 50 to 200 nM
GI50 [4]: 50 to 200 nM
GI50 [5]: > 1000 nM

C=CC(=O)N1CCC(c2n[nH]c3ncnc(Nc4ccc(Oc5ccnc(N6CCC(C(F)(F)F)C6)c5)cc4F)c23)CC1 (stereo not drawn) [Compound 173, 1-(4-(4-((2-fluoro-4-((2-(3-(trifluoromethyl)pyrrolidin-1-yl)pyridin-4-yl)oxy)phenyl)amino)-1H-pyrazolo[3,4-d]pyrimidin-3-yl)piperidin-1-yl)prop-2-en-1-one]
GI50 [1]: 200 to 1000 nM
GI50 [2]: 50 to 200 nM
GI50 [3]: < 50 nM
GI50 [4]: < 50 nM
GI50 [5]: > 1000 nM

C=CC(=O)N1CCC(c2n[nH]c3ncnc(Nc4ccc(Oc5ccnc(N6CCC(F)(F)C6)c5)cc4F)c23)CC1 [Compound 175, 1-(4-(4-((4-((2-(3,3-difluoropyrrolidin-1-yl)pyridin-4-yl)oxy)-2-fluorophenyl)amino)-1H-pyrazolo[3,4-d]pyrimidin-3-yl)piperidin-1-yl)prop-2-en-1-one]
GI50 [1]: > 1000 nM
GI50 [2]: 50 to 200 nM
GI50 [3]: 50 to 200 nM
GI50 [4]: 50 to 200 nM
GI50 [5]: > 1000 nM

C=CC(=O)N1CCC(c2n[nH]c3ncnc(Nc4ccc(Oc5ccnc(N6CC(O)(C(F)(F)F)C6)c5)cc4F)c23)CC1 [Compound 177, 1-(4-(4-((2-fluoro-4-((2-(3-hydroxy-3-(trifluoromethyl)azetidin-1-yl)pyridin-4-yl)oxy)phenyl)amino)-1H-pyrazolo[3,4-d]pyrimidin-3-yl)piperidin-1-yl)prop-2-en-1-one]
GI50 [1]: > 1000 nM
GI50 [2]: 200 to 1000 nM
GI50 [3]: 200 to 1000 nM
GI50 [4]: 50 to 200 nM
GI50 [5]: > 1000 nM

C=CC(=O)N1CCC(c2n[nH]c3ncnc(Nc4ccc(Oc5ccnc(N6CC7CC7C6)c5)cc4F)c23)CC1 (stereo not drawn) [Compound 180, 1-(4-(4-((4-((2-(3-azabicyclo[3.1.0]hexan-3-yl)pyridin-4-yl)oxy)-2-fluorophenyl)amino)-1H-pyrazolo[3,4-d]pyrimidin-3-yl)piperidin-1-yl)prop-2-en-1-one]
GI50 [1]: 200 to 1000 nM
GI50 [2]: 50 to 200 nM
GI50 [3]: 50 to 200 nM
GI50 [4]: < 50 nM
GI50 [5]: > 1000 nM

C=CC(=O)N1CCC(c2ccn3ncnc(Nc4ccc(Oc5ccn(Cc6cc(C)ccn6)n5)cc4F)c23)CC1 [Compound 197, 1-(4-(4-((2-fluoro-4-((1-((4-methylpyridin-2-yl)methyl)-1H-pyrazol-3-yl)oxy)phenyl)amino)pyrrolo[2,1-f][1,2,4]triazin-5-yl)piperidin-1-yl)prop-2-en-1-one]
GI50 [1]: > 1000 nM
GI50 [2]: > 1000 nM
GI50 [3]: > 1000 nM
GI50 [4]: 200 to 1000 nM
GI50 [5]: > 1000 nM

C=CC(=O)N1CCC(c2ccn3ncnc(Nc4ccc(OCc5ccccn5)c(Cl)c4)c23)CC1 [Compound 198, 1-(4-(4-((3-chloro-4-(pyridin-2-ylmethoxy)phenyl)amino)pyrrolo[2,1-f][1,2,4]triazin-5-yl)piperidin-1-yl)prop-2-en-1-one]
GI50 [1]: < 50 nM
GI50 [2]: < 50 nM
GI50 [3]: < 50 nM
GI50 [4]: < 50 nM
GI50 [5]: < 50 nM

C=CC(=O)N1CCC(c2ccn3ncnc(Nc4ccc(Oc5ccnc(N6C[C@@H](C)O[C@@H](C)C6)c5)cc4F)c23)CC1 [Compound 199, 1-(4-(4-((4-((2-((2R,6S)-2,6-dimethylmorpholino)pyridin-4-yl)oxy)-2-fluorophenyl)amino)pyrrolo[2,1-f][1,2,4]triazin-5-yl)piperidin-1-yl)prop-2-en-1-one]
GI50 [1]: 50 to 200 nM
GI50 [2]: < 50 nM
GI50 [3]: < 50 nM
GI50 [4]: < 50 nM
GI50 [5]: > 1000 nM

C=CC(=O)N1CCC(c2ccn3ncnc(Nc4ccc(Oc5ccnc(N6CCN(C)CC6)c5)cc4F)c23)CC1 [Compound 201, 1-(4-(4-((2-fluoro-4-((2-(4-methylpiperazin-1-yl)pyridin-4-yl)oxy)phenyl)amino)pyrrolo[2,1-f][1,2,4]triazin-5-yl)piperidin-1-yl)prop-2-en-1-one]
GI50 [1]: > 1000 nM
GI50 [2]: > 1000 nM
GI50 [3]: > 1000 nM
GI50 [4]: 200 to 1000 nM
GI50 [5]: > 1000 nM

C=CC(=O)N1CCC(c2ccn3ncnc(Nc4ccc(Oc5ccnc(N6CCC[C@@H](OC)C6)c5)cc4F)c23)CC1 [Compound 202, (R)-1-(4-(4-((2-fluoro-4-((2-(3-methoxypiperidin-1-yl)pyridin-4-yl)oxy)phenyl)amino)pyrrolo[2,1-f][1,2,4]triazin-5-yl)piperidin-1-yl)prop-2-en-1-one]
GI50 [1]: > 1000 nM
GI50 [2]: 50 to 200 nM
GI50 [3]: 200 to 1000 nM
GI50 [4]: 50 to 200 nM
GI50 [5]: > 1000 nM
